In US20160151347A1, “PHARMACEUTICAL COMPOUNDS” (ISIS Innovation LTD, priority 2013, published 2016):

What was measured:
[1] = system: human patient with sinus tachycardia; assay: Case report: heart rate (ECG) of a human patient with sinus tachycardia and systemic lupus erythematosus
Excerpt: The heart rate of a mammal is defined as the number of heart beats per unit of time, usually heart beats per minute (bpm). The heart rate or number of heart beats per unit of time can be determined using methods known in the art. Such a method may involve the simple measurement of a mammal's pulse. Alternatively, heart rate may be measured through the use of an electrocardiograph (ECG), which is readily available to those skilled in the art. Such a method involves counting the number of QRS complexes in the ECG.
The patient was a person with no previous history of cardiac related disease.
Furthermore, the glyceryl trinitrate spray was used whenever angina symptoms were experienced.
In June 2009, the patient was diagnosed with systemic lupus erythematosus.
On Aug. […] On Aug. […] On Sep.

If current = If current recordings, perforated patch voltage clamp in single isolated sinoatrial node cells; type: cell-based, guinea pig; conditions: for reduction in If current: 1 μM, 5 min exposure, n=7
[2] = system: mouse atrial tissue preparations with intact sino-atrial node; assay: Spontaneous beating rate of isolated mouse atrial preparations (tension transducer); type: cell-based; conditions: for reduction in beating rate from control: n=7 (Example 5); for decrease in spontaneous frequency: 30 minute exposure, n=6 (Example 3)
Excerpt: (§1) Male CD-1 mice (7-9 weeks of age) were terminated by concussion followed by dislocation. The chest cavity was opened and heparinised solution (10 U/mL) applied around the heart to minimise clotting during dissection. The heart was rapidly excised and placed in warm, oxygenated modified Tyrode solution (PSS, in mM: NaCl 125, NaHCO3 25, KCl 5.4, NaH2PO4 1.2, MgCl2 1, glucose 5.5, CaCl2 1.8, pH to 7.4 with NaOH and oxygenated with 95% O2/5% CO2), the ventricular tissue discarded and the sino-atrial node region cleared of any overlying tissue.
Loops of thin suture were tied to the lateral edges of each atrium by directly knotting around a small area of the tissue, taking care to avoid contact with the node itself. One loop was anchored to a hook, which also provided oxygenation to the organ bath, and the other tied to a tension transducer. The preparation was hung in an organ bath filled with PSS, maintained at 37° C. Tension data was digitised using a PowerLabs bridge amplifier and recorded on Chart5 software (all from ADlnstruments, UK). Beating rate was calculated in real-time from the upstroke of the tension signal using the Chart5 Ratemeter function.
Spontaneously-beating atrial preparations were allowed to stabilise for 20 minutes, solution was exchanged for fresh, warmed, PSS and the preparation was again allowed to stabilise for 30 minutes. Drugs were added directly to the organ bath by pipette and allowed to equilibrate for 30 minutes before rate data was sampled.
Male CD-1 mice (7-9 weeks of age) were terminated by concussion followed by dislocation.
as §1, with “The” for “Male CD-1 mice (7-9 weeks of age) were terminated by concussion followed by dislocation. The”

male Sprague-Dawley rats = assay: Rat in-vivo blood pressure and heart rate study (anaesthetised, carotid cannula)
Protocol: Data was acquired (200 Hz) in real time using a Biopac M100 system connected to a Dell P4 computer using AcqKnowledge software. Heart rate was triggered from the arterial blood pressure signal. Intravenous access was gained via the left external jugular vein using a 3 F cannula. After an equilibration period of at least 10 minutes, hydoxychloroquine (dissolved in sterile normal saline for injection and warmed to body temperature) was given as intravenous boluses over 30 seconds (1-30 mg/kg). […] Once a stable response had been reached, measurements were taken as an average over 30 seconds. On completion of the protocol, animals were euthanised with intraperitoneal injection of pentobarbitone. […] Data was acquired (200 Hz) in real time using a Biopac M100 system connected to a Dell P4 computer using AcqKnowledge software. Heart rate was triggered from the arterial blood pressure signal. Intravenous access was gained via the left external jugular vein using a 3 F cannula. After an equilibration period of at least 10 minutes, hydoxychloroquine (dissolved in sterile normal saline for injection and warmed to body temperature) was given as intravenous boluses over 30 seconds (1-30 mg/kg). […] Once a stable response had been reached, measurements were taken as an average over 30 seconds. On completion of the protocol, animals were euthanised with intraperitoneal injection of pentobarbitone.

C57BL/6 mice = system: C57BL/6 mice; set-up: species or system mouse; conditions: in vivo
Excerpt: Automated non-invasive tail cuff plethysmography (Visitech 2000, Visitech, USA) was used to determine systolic blood pressure in response to HCQ in drinking water when compared to a control group (n=9/group). C57BL/6 mice were habituated for 5 days and then underwent measurements alternate day for 28 days. All measurements were taken in the morning at the same time of day. Twenty measurements were taken, the first 10 discarded and an average of valid recordings then taken for analysis.
We assessed safety by performing long term feeding of mice at 100 mg/kg daily for 28 days with HCQ (FIG. 9) and measuring blood pressure by tail cuff plethysmography.

[3] = system: isolated guinea-pig sino-atrial node cells; assay: Action potential recordings, current clamp in single isolated sino-atrial node cells; type: cell-based; conditions: 1 μM
Protocol: Male guinea pigs (350-500 g) were sacrificed by concussion followed by cervical dislocation. The heart was rapidly excised and encouraged to beat several times in heparin-containing zero-Ca ^2+ modified Tyrode solution to prevent clotting (10 U/mL). The heart was mounted via the aorta on a constant pressure Langendorff system for retrograde perfusion, with solutions maintained at body temperature. After 2 minutes initial wash with zero Ca ^2+ solution (in mM: NaCl 136, KCI 5.4, NaHCO3 12, Na^+ pyruvate 1, NaH2PO4 1, MgCl2 1, EGTA 0.04, glucose 5; gassed with 95% O2/5% CO2 to maintain a pH of 7.4), perfusion was switched to re-circulation with collagenase solution (same as zero Ca^2+ but with 27 mg collagenase/50 mL—type II Worthington, Worthington Biochemical Corp., Lakewood, N.J., USA—0.1 mM CaCl2 and no EGTA).
Following 25 minutes enzymatic digestion, the right atrium, vena-cavae and pulmonary artery were dissected away from the ventricles. The right atrium was pinned in a Sylgard-coated bath, opened by anterior incision, and the SA node identified from anatomical features and tissue appearance. Under a binocular microscope, the SA node appears as a translucent, smooth, white structure in contrast to the thicker, pinker surrounding atrial tissue. The SA node was dissected into thin strips 2×5 mm) and stored in a high potassium medium (in mM: KCI 70, MgCl2 5, K^+ glutamine 5, taurine 20, EGTA 0.04, succinic acid 5, KH2PO4 20, HEPES 5, glucose 10; pH to 7.2 with KOH). Isolation of single SA node myocytes was carried out by gentle trituration.
For all single cell experiments, cells were transferred to a glass coverslip and superfused with oxygenated PSS at 34 ±1° C. using a gravity-fed system running at 2-3 mL/min. HCQ was applied via superfusion, with an electronic switching mechanism resulting in full solution exchange over a period of less than 20 seconds.
Perforated patch clamp recordings were carried out using electrodes pulled from filamented borosilicate glass capillary tubing (GC100 F, Harvard Apparatus Ltd, Kent) using a two-stage vertical puller (Narishige, Japan). […]
Micropipettes were mounted in a Perspex holder containing an Ag/AgCl wire and connected to a CV203BU headstage. All recordings were carried out using an AxoPatch 200B microelectrode system, digitised with a Digidata 1200 A-D converter, and recorded using PCIamp7 software at a sampling rate of 2 kHz (All products in this paragraph, Axon Instruments). […]
Action potentials were recorded from single guinea pig SA node cells under current clamp conditions using the AxoPatch200B microelectrode system and rate measured in Hz using spectral analysis. […]

[4] = 3 μM, 5 mins superfusion, n=4 cells

CC(C)NCC(O)COc1ccc(CC(N)=O)cc1 (centres unmarked) [atenolol]
side effects experienced ([1]; patient on atenolol): tiredness associated with the onset of use of atenolol, low blood pressure and increased effects of Raynaud's syndrome
heart rate ([1]; patient treated with atenolol and a glyceryl trinitrate spray, about 118 bpm at rest before): 70-80 bpm

CCN(CCO)CCCC(C)Nc1ccnc2cc(Cl)ccc12 (centres unmarked) [hydroxychloroquine, 2-[{4-[(7-chloroquinolin-4-yl)amino]pentyl}(ethyl)amino]ethanol]
reduction in If current (If current; −80 mV voltage step): 20+/−4%
reduction in If current (If current; −100 mV step): 12+/−4%
maximal conductance of I(f) (If current; [4]): 85±6 % of control
voltage of half-activation (V50) and slope of conductance (If current; [4]): unchanged
heart rate ([1]; 200 mg daily resumed Aug. 4, 2010, measured Sep. 16, 2010): 80-88 bpm
stable heart rate ([1]; 200 mg daily, August 2010 until December 2010): 70-85 bpm
heart rate ([1]; 200 mg to 400 mg Plaquenil per day, Atenolol completely ceased): 70-80 bpm
recorded heart rate ([1]; dose halved to 100 mg per day, ECG Aug. 3, 2010): 109 bpm
reduction in beating rate from control ([2]; 3 μM cumulative dose): 9±3%
decrease in spontaneous frequency ([2]; 3 μM): 11%
reduction in beating rate from control ([2]; 10 μM cumulative dose): 15±2%
decrease in spontaneous frequency ([2]; 10 μM): 20%
cumulative dose at which a significant transient reduction in heart rate is observed (male Sprague-Dawley rats; cumulative intravenous doses): ≥ 7.5 mg/kg
effect on blood pressure at low doses (male Sprague-Dawley rats; low intravenous doses (1-15 mg), n=6): without an effect on blood pressure
effect on blood pressure at very high doses (male Sprague-Dawley rats; very high intravenous doses): an effect on blood pressure (which recovers over time)
systolic blood pressure, baseline (C57BL/6 mice; C57BL/6, mouse): 109.7±2.89 mmHg
start weight (C57BL/6 mice; mouse): 27.72 ± 0.36 g
reduction in cellular beating rate (action potential firing rate) ([3]; 3 mins of exposure, n=6): 10±3%
lengthening in the time taken to reach 50% repolarisation ([3]; 5 min superfusion): 11+/-3%
reduction in the slope of spontaneous diastolic depolarization ([3]; 5 min superfusion): 25+/−3%
reduction in rate of spontaneous action potential generation (cellular beating rate) ([3]; 5 min superfusion, n=6, listed as HCQ): 17±6%
